Converted amounts (≈) assume the structure as drawn.
Assays:
M. abscessus = assay: Spectrum of activity: M. abscessus growth inhibition; type: cell-based; conditions: Mycobacteroides abscessus, 72 h; 3 days; read-out: Antibacterial activity (MIC50) M. abscessus
[1] = Cytotoxicity assay, HepG2 cells (CellTiter 96 AQueous One); conditions: human, HepG2 cells
M. bovis BCG Pasteur = assay: microbe, parasite or virus in culture; type: cell-based; conditions: Mycobacterium tuberculosis variant bovis BCG, BCG, read-out: Antibacterial activity (MIC50) M. bovis BCG
Staphylococcus aureus = assay: Spectrum of activity: S. aureus growth inhibition; type: cell-based; conditions: Staphylococcus aureus; LB medium, overnight; read-out: Antibacterial activity (MIC50) S. aureus
M. avium = assay: Spectrum of activity: M. avium growth inhibition; type: cell-based; conditions: Mycobacterium avium, 96 h; 4 days; read-out: Antibacterial activity (MIC50) M. avium
M. tuberculosis H37Rv [2] = assay: Bactericidal activity, CFU enumeration on agar after treatment; type: cell-based, Mycobacterium tuberculosis; conditions: Mycobacterium tuberculosis, H37RV; M. tuberculosis; 1 mM; log CFU/ml reduction from initial inoculum; read-out: Bactericidal activity (log reduction) at 1 mM
[3] = Cytotoxicity assay, THP-1 cells (CellTiter 96 AQueous One); conditions: human
M. tuberculosis = assay: Growth inhibition in acidic medium (pH 6.2); type: cell-based, Mycobacterium tuberculosis; conditions: Mycobacterium tuberculosis, pH 6.2; read-out: Activity (MIC50) in acidic medium (pH 6.2)
Escherichia coli = assay: Spectrum of activity: E. coli growth inhibition; type: cell-based; conditions: Escherichia coli; LB medium, overnight; read-out: Antibacterial activity (MIC50) E. coli
[4] = test system: human red blood cells (RBCs); assay: Red blood cell lysis assay; conditions: hemolysis
M. tuberculosis H37Rv [5] = assay: M. tuberculosis growth inhibition dose-response (MIC50), turbidity readout; type: cell-based, Mycobacterium tuberculosis; conditions: Mycobacterium tuberculosis, 240 h; H37Rv, 10 days; read-out: Antibacterial activity (MIC50) M. tuberculosis
M. smegmatis = assay: Spectrum of activity: M. smegmatis growth inhibition; type: cell-based; conditions: Mycolicibacterium smegmatis, 24 h; 1 day; read-out: Antibacterial activity (MIC50) M. smegmatis

Compound	MIC50 (M. abscessus) [µM]	CC50 at 24 h [1] [µM]	MIC50 (M. bovis BCG Pasteur) [µM]	MIC50 (Staphylococcus aureus) [µM]	MIC50 (M. avium) [µM]	log reduction at 1000 µM (M. tuberculosis H37Rv [2])	CC50 at 24 h [3] [µM]	MIC50 (M. tuberculosis) [µM]	MIC50 (Escherichia coli) [µM]	RBCs HC50 [4]	MIC50 (M. tuberculosis H37Rv [5]) [µM]	MIC50 (M. smegmatis) [µM]
NCc1cccc(N2CCCCC2)n1 [Fragment F17, [6-(Piperidin-1-yl)pyridin-2-yl]methanamine]	> 500	455	345 (≈ 66 µg/mL)	104 (≈ 19.9 µg/mL)	271 (≈ 51.8 µg/mL)	3.07	489	245 (≈ 46.9 µg/mL)	> 500	>1,000 μM	250 (≈ 47.8 µg/mL)	> 500
CCOC(=O)c1c(N)sc(C)c1-c1ccccc1 [Fragment F19, Ethyl 2-amino-5-methyl-4-phenylthiophene-3-carboxylate]	206 (≈ 53.8 µg/mL)	233	267 (≈ 69.8 µg/mL)	344 (≈ 89.9 µg/mL)	214 (≈ 55.9 µg/mL)	1.98	247	117 (≈ 30.6 µg/mL)	> 500	453 µM	270 (≈ 70.6 µg/mL)	491 (≈ 128 µg/mL)
O=C(O)c1ccc(-c2cccs2)s1 [Fragment F20, [2,2′-Bithiophene]-5-carboxylic acid]	267 (≈ 56.1 µg/mL)	765	457 (≈ 96.1 µg/mL)	> 500	> 500	1.98	974	170 (≈ 35.7 µg/mL)	> 500	>1,000 μM	271 (≈ 57 µg/mL)	289 (≈ 60.8 µg/mL)
Cc1cc2cc(N)ccc2[nH]1 [Fragment F21, 2-Methyl-1H-indol-5-amine]	> 500	387	398 (≈ 58.2 µg/mL)	487 (≈ 71.2 µg/mL)	> 500	2.5	409	305 (≈ 44.6 µg/mL)	> 500	>1,000 μM	281 (≈ 41.1 µg/mL)	401 (≈ 58.6 µg/mL)
N#Cc1ccc(O)cc1F [Fragment F22, 2-Fluoro-4-hydroxybenzonitrile]	401 (≈ 55 µg/mL)	879	420 (≈ 57.6 µg/mL)	343 (≈ 47 µg/mL)	317 (≈ 43.5 µg/mL)	1.6	677	140 (≈ 19.2 µg/mL)	202 (≈ 27.7 µg/mL)	>1,000 μM	300 (≈ 41.1 µg/mL)	487 (≈ 66.8 µg/mL)
CNCc1ccccc1Oc1ccccc1 [Fragment F23, Methyl[(2-phenoxyphenyl)methyl]amine]	> 500	789	347 (≈ 74 µg/mL)	> 500	> 500	1.22	976	> 500	> 500	>1,000 μM	305 (≈ 65.1 µg/mL)	> 500
Cc1ccc(-c2cc(C(=O)O)c(C)o2)cc1 [Fragment F24, 2-Methyl-5-(4-methylphenyl)-3-furoic acid]	> 500	984	193 (≈ 41.7 µg/mL)	> 500	458 (≈ 99 µg/mL)	2.02	887	120 (≈ 25.9 µg/mL)	> 500	>1,000 μM	316 (≈ 68.3 µg/mL)	> 500
O=C(O)c1csc2ccc(Cl)cc12 [Fragment F25, 5-Chloro-1-benzothiophene-3-carboxylic acid]	257 (≈ 54.7 µg/mL)	765	367 (≈ 78 µg/mL)	> 500	489 (≈ 104 µg/mL)	2.1	876	94 (≈ 20 µg/mL)	> 500	945 µM	319 (≈ 67.8 µg/mL)	98 (≈ 20.8 µg/mL)
O=C(O)c1ccc(-c2ccsc2)cc1 [Fragment F26, 4-(3-Thienyl)benzoic acid]	497 (≈ 102 µg/mL)	944	> 500	> 500	> 500	1.35	978	125 (≈ 25.5 µg/mL)	> 500	>1,000 μM	320 (≈ 65.4 µg/mL)	> 500
Oc1noc2cc(Cl)ccc12 [Fragment F27, 6-Chlorobenzo[d]isoxazol-3-ol]	> 500	> 1000	> 500	> 500	> 500	1.05	777	210 (≈ 35.6 µg/mL)	> 500	>1,000 μM	395 (≈ 67 µg/mL)	> 500
OCc1csc(-c2ccc(C(F)(F)F)cc2)n1 [Fragment F28, {2-[4-(Trifluoromethyl)phenyl]-1,3-thiazol-4-yl}methanol]	253 (≈ 65.6 µg/mL)	> 1000	398 (≈ 103 µg/mL)	> 500	325 (≈ 84.3 µg/mL)	1.21	940	215 (≈ 55.7 µg/mL)	> 500	786 µM	434 (≈ 113 µg/mL)	235 (≈ 60.9 µg/mL)
Oc1ccc(Oc2ccccc2)cc1 [Fragment F29, 4-Phenoxyphenol]	267 (≈ 49.7 µg/mL)	202	387 (≈ 72.1 µg/mL)	348 (≈ 64.8 µg/mL)	411 (≈ 76.5 µg/mL)	1.09	145	118 (≈ 22 µg/mL)	201 (≈ 37.4 µg/mL)	912 µM	439 (≈ 81.7 µg/mL)	250 (≈ 46.6 µg/mL)
